Assay results published in patent publication US12233086B2, “Biomarkers for neurogenerative disease” (Neuvivo, Inc., priority 2022, dated 2025).
Several values for one entry are separate records, joined by “and”; a condition that tells them apart may be missing. Equal entries are not always repeated. Where two headings read alike, the source gives them in different places.

Key:
[1] = system: ALS patients; settings: for decline in VC over 6 months vs placebo (words): CRP>1.13 mg/L
Experimental: (§1) Participants received a total of 20 infusions administered intravenously monthly over 6 cycles during a 6-month double-blind treatment period. […] The start of each cycle was separated by four weeks. Cycle 1 consisted of 30 min infusions over 5 consecutive days. Cycles 2, 3, 4, 5, and 6 each consisted of 3 consecutive daily infusions. ALSFRS-R and vital capacity measurements were performed monthly. The average rate of ALS disease progression (Average DP Rate) at baseline was defined as ALSFRS-R score change per month [(48−ALSFRS-R score at baseline)/months since ALS symptom onset from baseline]]. […] Plasma specimens for biomarker analysis were obtained at the beginning and end of the study (month 6, one month after last dose). All patients had to have completed the study to provide end of study plasma. The units expressed in this Example are hs-CRP units, abbreviated as CRP.
The clinical outcome data evaluated for the current study were the forced vital capacity measurements performed on all patients at baseline and every month until the end of study. Using the patient's age and height with the actual respiratory volume measured, the % predicted vital capacity (VC) was calculated as described.

[2] = system: ALS patients
[3] = system: LPS:EGF; settings: ratio increased over time in placebo
[4] = system: TGFB1; settings: age≤65, baseline CRP>1.13 mg/L; p=0.02 for month 6
Experimental: as §1

[5] = system: CD16; settings: phase 1 dose ascending study in ALS patients; cited from earlier work
[6] = system: LBP
From the text: (§2) Description of ALS Phase 2A trial and participants: Participants received a total of infusions administered intravenously over 6 cycles during a 25-week double-blind treatment period. There were 4 weeks between the start of each cycle. Cycle 1 consisted of 5 consecutive daily infusions. Cycles 2, 3, 4, 5, and 6 each consisted of 3 consecutive daily infusions. Plasma specimens for biomarker analysis were obtained at the beginning and end of study.
(§3) Source of patient specimens: The plasma specimens had been stored at −80° C. since the trial ended and were all evaluated for biomarker levels.

[7] = system: IL-18
From the text: as §2, §3

[8] = system: HGF
From the text: as §2, §3

[9] = system: IL-10
From the text: as §2, §3

[10] = system: LPS
From the text: as §2, §3

[11] = system: Neopterin
From the text: as §2, §3

[12] = system: EGF
From the text: as §2, §3

[13] = system: sCD163
From the text: as §2, §3

[14] = system: IL-6; settings: age 40-65, CRP>1.13 mg/L
Experimental: as §3

[15] = system: IL-8; settings: age 40-65, CRP>1.13 mg/L
Experimental: as §3

[16] = system: TNF-a; settings: age 40-65, CRP>1.13 mg/L
Experimental: as §3

[17] = system: ALS patients; settings: plasma CRP greater than 1.13 mg/L; rates of ALSFRS-R and vital capacity decline; cited from earlier work
[18] = system: NfL; settings: 6 months; p=0.09
[19] = NP001 2 mg/kg, N 59, age≤65, CRP>1.13 mg/L
[20] = NP001 2 mg/kg, N 64, age≤65, CRP>1.13 mg/L
[21] = NP001 2 mg/kg, N 68, age≤65, CRP>1.13 mg/L
[22] = NP001 2 mg/kg, N 69, age≤65, CRP>1.13 mg/L
[23] = NP001 2 mg/kg, N 72, age≤65, CRP>1.13 mg/L
[24] = NP001 2 mg/kg, N 74, age≤65, CRP>1.13 mg/L
[25] = CRP>1.13 mg/L, listed as sodium chlorite
[26] = NP001 2 mg/kg, N 14, age 40-65, CRP>1.13 mg/L, six months
[27] = CRP>1.13 mg/L, aged 40-65, Wilcoxon p 0.02
[28] = CRP>1.13 mg/L, aged 40-65, Wilcoxon p 0.04

In the case of sodium chlorite [NP001], the “average VC lost per month” value ([1]; 2 mg/kg, age≤65, CRP>1.13 mg/L, placebos 2.1%) is reported as 0.75 % VC per month, the “decline in VC over 6 months vs placebo (words)” value [1] is reported as “improved” and the “decline in VC over 6 months vs placebo (words)” value ([1]; listed as sodium chlorite) is reported as “significantly slowed”. The “% VC change from baseline, Month 6, Mean” value [1, 19] was “Mean: −9.1%”, the “% VC change from baseline, Month 6, Median” value [1, 19] was “Median: −5.4%” and the “% VC change from baseline, Month 5, Mean” value [1, 20] was “Mean: −9.4%”. The “% VC change from baseline, Month 5, Median” value [1, 20] was “Median: −6.4%”, the “% VC change from baseline, Month 4, Mean” value [1, 21] was “Mean: −8.1%” and the “% VC change from baseline, Month 4, Median” value [1, 21] was “Median: −5.4%”. The “% VC change from baseline, Month 3, Mean” value [1, 22] was “Mean: −6.5%”, the “% VC change from baseline, Month 3, Median” value [1, 22] was “Median: −3.8%” and the “% VC change from baseline, Month 2, Mean” value [1, 23] was “Mean: −4.6%”. The “% VC change from baseline, Month 2, Median” value [1, 23] was “Median: −2.6%”, the “% VC change from baseline, Month 1, Mean” value [1, 24] was “Mean: −2.5%” and the “% VC change from baseline, Month 1, Median” value [1, 24] was “Median: −0.9%”. For the same substance, the “mean % VC change from baseline by the end of study, low CRP group” value ([1]; age≤65, CRP<1.13 mg/L, Placebo −13.5%, p=0.83) was −16.4%, the “slower rate of VC loss compared to placebo” value ([1]; age≤65, CRP>1.13 mg/L, end of six-month study, p=0.05) was > 64% and 64% and the “ALSFRS-R score lost over six months” value ([2]; 2 mg/kg, CRP>1.13 mg/L, age 40-65, placebos lost 4.6 units (p=0.03)) was 1.2 units. For the same substance, the “proportion of non-progressors (no decrease in ALSFRS-R score at 6 months)” value ([2]; 2 mg/kg, age 40-65, CRP>1.13 mg/L, placebo 2 out of 17) was 6 out of 15, the “decline in ALSFRS-R over 6 months vs placebo (words)” value ([2]; CRP>1.13 mg/L) was “highly significant difference” and the “non-progression rate (no decrease in ALSFRS-R score at 6 months)” value ([2]; CRP>1.13 mg/L, age 40-65, placebos less than 10% (p=0.08)) was 35%. For the same substance, the “decline in ALSFRS-R over 6 months vs placebo (words)” value [2, 25] was “significantly slowed”, the “relationship between drug dose and change in ALSFRS-R score over six months” value ([2]; plasma CRP above the median value (1.13 mg/L)) was “dose responsive relationship” and the “clinical activity in all ALS patients of the phase 2A study” value ([2]; symptom onset within the past three years, no CRP or age cutoff) was “did not show significant clinical activity”. For the same substance, the “ratio of LPS to EGF, trend over time” value [3] was “decreased over time”, the “plasma TGFB1 levels over the 6-month trial vs placebo” value [4] was “significantly increased” and the “monocyte activation marker CD16” value [5] was “dose dependent down regulation”. For the same substance, the “plasma LBP change relative to placebo over 6 months” value ([6]; CRP>1.13 mg/L) was “decreased”, the “LBP: % difference between NP001-treated and placebo at 6 months (% median change from baseline)” value ([6]; CRP>1.13 mg/L, aged 40-65, Wilcoxon p 0.006) was −25.9% and the “% LBP change from baseline, Mean” value [6, 26] was −1.6%. For the same substance, the “% LBP change from baseline, Median” value [6, 26] was −5.4%, the “IL-18: % difference between NP001-treated and placebo at 6 months (% median change from baseline)” value [7, 27] was −58.3% and the “plasma IL-18 change relative to placebo over 6 months (words)” value [7, 25] was “decreased”. For the same substance, the “% IL-18 change from baseline, Mean” value [7, 26] was 25.8%, the “% IL-18 change from baseline, Median” value [7, 26] was −2.1% and the “plasma HGF change relative to placebo over 6 months” value ([8]; CRP>1.13 mg/L) was “decreased”. For the same substance, the “HGF: % difference between NP001-treated and placebo at 6 months (% median change from baseline)” value [8, 27] was −31.4%, the “% HGF change from baseline, Mean” value [8, 26] was −7.6% and the “% HGF change from baseline, Median” value [8, 26] was −14.3%. For the same substance, the “plasma IL-10 change relative to placebo over 6 months” value ([9]; CRP>1.13 mg/L) was “increased”, the “IL-10: % difference between NP001-treated and placebo at 6 months (% median change from baseline)” value [9, 27] was 18.6% and the “% IL-10 change from baseline, Mean” value [9, 26] was 38.8%. The “% IL-10 change from baseline, Median” value [9, 26] was 0.0%, the “LPS: % difference between NP001-treated and placebo at 6 months (% median change from baseline)” value [10, 28] was −51.8% and the “plasma LPS change relative to placebo over 6 months (words)” value [10, 25] was “decreased”. The “% LPS change from baseline, Mean” value [10, 26] was −22.0%, the “% LPS change from baseline, Median” value [10, 26] was −30.4% and the “plasma neopterin change relative to placebo over 6 months” value ([11]; CRP>1.13 mg/L) was “increased”. The “Neopterin: % difference between NP001-treated and placebo at 6 months (% median change from baseline)” value [11, 28] was 18.1%, the “% Neopterin change from baseline, Mean” value [11, 26] was 13.9% and the “% Neopterin change from baseline, Median” value [11, 26] was 10.8%. For the same substance, the “plasma EGF change relative to placebo over 6 months” value ([12]; CRP>1.13 mg/L) was “increased”, the “EGF: % difference between NP001-treated and placebo at 6 months (% median change from baseline)” value [12, 28] was 32.4% and the “% EGF change from baseline, Mean” value [12, 26] was 64.3%. The “% EGF change from baseline, Median” value [12, 26] was 6.5%, the “plasma sCD163 change relative to placebo over 6 months” value ([13]; CRP>1.13 mg/L) was “decreased” and the “sCD163: % difference between NP001-treated and placebo at 6 months (% median change from baseline)” value [13, 27] was −19.6%. The “% CD163 change from baseline, Mean” value [13, 26] was −3.5%, the “% CD163 change from baseline, Median” value [13, 26] was −5.9% and the “plasma IL-6 values over the six-month study” value [14] was “within the normal range and did not change”. The “plasma IL-8 values over the six-month study” value [15] was “within the normal range and did not change”, the “plasma TNF-a values over the six-month study” value [16] was “within the normal range and did not change” and the “disease progression vs placebo, post hoc evaluation of phase 2 studies” value [17] was “slowed disease progression”. The “plasma NfL in treated non-progressors compared to progressors” value [18] was “trend towards a loss of plasma NfL”.
